Measurements: patent US9173906B2, “Methods and compositions for tissue regeneration” (SMITH & NEPHEW, INC., priority 2002, dated 2015)

Experiments:
Assay in all cases: Mitomycin C growth arrest of fibroblasts (weekly cell counting, colony inspection)
[1] = tested on: human telomerase immortalized fibroblast line (MDX12); conditions: MMC treatment for 5 h
Protocol: (§1) The rat fibroblast cell line (CRL 1213), the FGF1-transfected rat fibroblast cell line (1175/CRL 1213), the human telomerase immortalized fibroblast line (MDX12), and the primary human fibroblasts (EDX1) were each growth arrested using the following method. Fibroblasts were grown in DMEM+10% FCS, 25 mM Hepes, 1 mM pyruvate, 2 mM L-Gln, 100 U/ml penicillin, 100 μg/ml streptomycin in T75 flasks. […] The cells were then rinsed with PBS and detached with 0.05% trypsin/0.02% EDTA. The remaining cells were plated at densities of 100 to 5000 cells/cm^2 in T25-flasks respectively (10 flasks for each density). These cells were incubated at 37° C. with 2 media changes per week.
(§2) Efficiency of cell growth arrest was measured by weekly counting of cells (using a hemacytometer) cultured in the flasks plated at a density of 5000 cells/cm^2 and by inspection of appearing colonies in the flasks plated at a density of 100 cells/cm^2. Changes in cell morphology were also examined.

[2] = tested on: FGF1-transfected rat fibroblast cell line (1175/CRL 1213); format: cell-based
Protocol: as §1, §2

[3] = tested on: rat fibroblast cell line (CRL 1213); format: cell-based; conditions: MMC treatment for 5 h
Protocol: as §1, §2

[4] = tested on: primary human fibroblasts (EDX1); conditions: MMC treatment for 5 h
Protocol: as §1, §2

Structure (SMILES): CO[C@@]12[C@H](COC(N)=O)C3=C(C(=O)C(C)=C(N)C3=O)N1C[C@@H]1N[C@@H]12 [mitomycin C]
- concentration sufficient to growth arrest [1]: 8 µg/mL
- efficacy of concentrations below 1 μg/ml [2]: not efficacious
- concentration at which cells were growth arrested ([2]; MMC treatment for 5 h): 1 µg/mL
- concentration optimal to growth arrest [3]: 2 µg/mL
- concentration sufficient to growth arrest [4]: 8 µg/mL
